{
  "source": "ChEMBL document CHEMBL3797052",
  "about": "(Eur J Med Chem, 2016)",
  "data": [
    {"test_system": "NCI-H322M", "test": "Antiproliferative activity against human NCI-H322M cells assessed as cell growth at 10^-8 M after 48 hrs by sulforhodamine B assay", "assay_type": "functional", "settings": "read-out: Activity", "units": {"growth at 0.01 µM": "%"}, "values": [
      {"smiles": "CNC(=O)c1cc(Oc2ccc3nc(NC(=O)Nc4ccc(Cl)c(C(F)(F)F)c4)sc3c2)ccn1", "growth at 0.01 µM": 101}
    ]},
    {"test_system": "EKVX", "test": "Antiproliferative activity against human EKVX cells assessed as cell growth at 10^-6 M after 48 hrs by sulforhodamine B assay", "assay_type": "functional", "settings": "read-out: Activity", "units": {"growth at 1 µM": "%"}, "values": [
      {"smiles": "CNC(=O)c1cc(Oc2ccc3nc(NC(=O)Nc4ccc(Cl)c(C(F)(F)F)c4)sc3c2)ccn1", "growth at 1 µM": 82}
    ]},
    {"test_system": "not listed separately", "test": "Antiproliferative activity against human SF295 cells assessed as cell growth at 10^-7 M after 48 hrs by sulforhodamine B assay", "assay_type": "functional", "settings": "SF-295, 48 h, read-out: Activity", "units": {"growth at 0.1 µM": "%"}, "values": [
      {"smiles": "CNC(=O)c1cc(Oc2ccc3nc(NC(=O)Nc4ccc(Cl)c(C(F)(F)F)c4)sc3c2)ccn1", "growth at 0.1 µM": 88}
    ]},
    {"test_system": "not listed separately", "test": "Antiproliferative activity against human RPMI8226 cells assessed as cell growth at 10^-8 M after 48 hrs by sulforhodamine B assay", "assay_type": "functional", "settings": "RPMI-8226, 48 h, read-out: Activity", "units": {"growth at 0.01 µM": "%"}, "values": [
      {"smiles": "CNC(=O)c1cc(Oc2ccc3nc(NC(=O)Nc4ccc(Cl)c(C(F)(F)F)c4)sc3c2)ccn1", "growth at 0.01 µM": 100}
    ]},
    {"test_system": "not listed separately", "test": "Antiproliferative activity against human MOLT4 cells assessed as cell growth at 10^-4 M after 48 hrs by sulforhodamine B assay", "assay_type": "functional", "settings": "MOLT-4, 48 h, read-out: Activity", "units": {"growth at 100 µM": "%"}, "values": [
      {"smiles": "CNC(=O)c1cc(Oc2ccc3nc(NC(=O)Nc4ccc(Cl)c(C(F)(F)F)c4)sc3c2)ccn1", "growth at 100 µM": 55}
    ]},
    {"test_system": "not listed separately", "test": "Antiproliferative activity against human UO31 cells assessed as cell growth at 10^-8 M after 48 hrs by sulforhodamine B assay", "assay_type": "functional", "settings": "UO-31, 48 h, read-out: Activity", "units": {"growth at 0.01 µM": "%"}, "values": [
      {"smiles": "CNC(=O)c1cc(Oc2ccc3nc(NC(=O)Nc4ccc(Cl)c(C(F)(F)F)c4)sc3c2)ccn1", "growth at 0.01 µM": 100}
    ]},
    {"test_system": "not listed separately", "test": "Antiproliferative activity against human SNB75 cells assessed as cell growth at 10^-8 M after 48 hrs by sulforhodamine B assay", "assay_type": "functional", "settings": "SNB-75, 48 h, read-out: Activity", "units": {"growth at 0.01 µM": "%"}, "values": [
      {"smiles": "CNC(=O)c1cc(Oc2ccc3nc(NC(=O)Nc4ccc(Cl)c(C(F)(F)F)c4)sc3c2)ccn1", "growth at 0.01 µM": 79}
    ]},
    {"test_system": "not listed separately", "test": "Antiproliferative activity against human RXF393 cells assessed as cell growth at 10^-8 M after 48 hrs by sulforhodamine B assay", "assay_type": "functional", "settings": "RXF 393, 48 h, read-out: Activity", "units": {"growth at 0.01 µM": "%"}, "values": [
      {"smiles": "CNC(=O)c1cc(Oc2ccc3nc(NC(=O)Nc4ccc(Cl)c(C(F)(F)F)c4)sc3c2)ccn1", "growth at 0.01 µM": 87}
    ]},
    {"test_system": "MDA-MB-231", "test": "(§1) Antiproliferative activity against human MDA-MB-231 cells assessed as growth inhibition after 48 hrs by sulforhodamine B assay", "assay_type": "functional", "settings": "MDA-MB-231, 48 h", "units": {"GI50": "µM", "TGI": "µM"}, "values": [
      {"smiles": "CNC(=O)c1cc(Oc2ccc3nc(NC(=O)Nc4ccc(Cl)c(C(F)(F)F)c4)sc3c2)ccn1", "GI50": 1.43, "TGI": 4.29}
    ]},
    {"test_system": "MDA-MB-231", "test": "as §1", "assay_type": "functional", "settings": "MDA-MB-231, 48 h, read-out: LC50 (the source's name)", "units": {"CC50": "µM"}, "values": [
      {"smiles": "CNC(=O)c1cc(Oc2ccc3nc(NC(=O)Nc4ccc(Cl)c(C(F)(F)F)c4)sc3c2)ccn1", "CC50": 59.2}
    ]},
    {"test_system": "not listed separately", "test": "Antiproliferative activity against human HL-60(TB) cells assessed as cell growth at 10^-6 M after 48 hrs by sulforhodamine B assay", "assay_type": "functional", "settings": "HL-60, 48 h, read-out: Activity", "units": {"growth at 1 µM": "%"}, "values": [
      {"smiles": "CNC(=O)c1cc(Oc2ccc3nc(NC(=O)Nc4ccc(Cl)c(C(F)(F)F)c4)sc3c2)ccn1", "growth at 1 µM": 96}
    ]},
    {"test_system": "NCI-H23", "test": "Antiproliferative activity against human NCI-H23 cells assessed as cell growth at 10^-6 M after 48 hrs by sulforhodamine B assay", "assay_type": "functional", "settings": "NCI-H23, 48 h, read-out: Activity", "units": {"growth at 1 µM": "%"}, "values": [
      {"smiles": "CNC(=O)c1cc(Oc2ccc3nc(NC(=O)Nc4ccc(Cl)c(C(F)(F)F)c4)sc3c2)ccn1", "growth at 1 µM": 88}
    ]},
    {"test_system": "ACHN", "test": "Antiproliferative activity against human ACHN cells assessed as growth inhibition after 48 hrs by sulforhodamine B assay", "assay_type": "functional", "settings": "not given", "units": {"GI50": "µM", "LC50": "µM", "TGI": "µM"}, "values": [
      {"smiles": "CNC(=O)c1cc(Oc2ccc3nc(NC(=O)Nc4ccc(Cl)c(C(F)(F)F)c4)sc3c2)ccn1", "GI50": 1.85, "LC50": 7.82, "TGI": 3.8}
    ]},
    {"test_system": "not listed separately", "test": "Antiproliferative activity against human UACC257 cells assessed as cell growth at 10^-4 M after 48 hrs by sulforhodamine B assay", "assay_type": "functional", "settings": "UACC-257, 48 h, read-out: Activity", "units": {"growth at 100 µM": "%"}, "values": [
      {"smiles": "CNC(=O)c1cc(Oc2ccc3nc(NC(=O)Nc4ccc(Cl)c(C(F)(F)F)c4)sc3c2)ccn1", "growth at 100 µM": 30}
    ]},
    {"test_system": "EKVX", "test": "Antiproliferative activity against human EKVX cells assessed as cell growth at 10^-8 M after 48 hrs by sulforhodamine B assay", "assay_type": "functional", "settings": "read-out: Activity", "units": {"growth at 0.01 µM": "%"}, "values": [
      {"smiles": "CNC(=O)c1cc(Oc2ccc3nc(NC(=O)Nc4ccc(Cl)c(C(F)(F)F)c4)sc3c2)ccn1", "growth at 0.01 µM": 97}
    ]},
    {"test_system": "not listed separately", "test": "Antiproliferative activity against human TK10 cells assessed as cell growth at 10^-8 M after 48 hrs by sulforhodamine B assay", "assay_type": "functional", "settings": "TK-10, 48 h, read-out: Activity", "units": {"growth at 0.01 µM": "%"}, "values": [
      {"smiles": "CNC(=O)c1cc(Oc2ccc3nc(NC(=O)Nc4ccc(Cl)c(C(F)(F)F)c4)sc3c2)ccn1", "growth at 0.01 µM": 104}
    ]},
    {"test_system": "not listed separately", "test": "Antiproliferative activity against human HOP62 cells assessed as cell growth at 10^-7 M after 48 hrs by sulforhodamine B assay", "assay_type": "functional", "settings": "HOP-62, 48 h, read-out: Activity", "units": {"growth at 0.1 µM": "%"}, "values": [
      {"smiles": "CNC(=O)c1cc(Oc2ccc3nc(NC(=O)Nc4ccc(Cl)c(C(F)(F)F)c4)sc3c2)ccn1", "growth at 0.1 µM": 95}
    ]},
    {"test_system": "NCI-H460", "test": "Antiproliferative activity against human NCI-H460 cells assessed as cell growth at 10^-6 M after 48 hrs by sulforhodamine B assay", "assay_type": "functional", "settings": "NCI-H460, 48 h, read-out: Activity", "units": {"growth at 1 µM": "%"}, "values": [
      {"smiles": "CNC(=O)c1cc(Oc2ccc3nc(NC(=O)Nc4ccc(Cl)c(C(F)(F)F)c4)sc3c2)ccn1", "growth at 1 µM": 86}
    ]},
    {"test_system": "not listed separately", "test": "Antiproliferative activity against human HCT15 cells assessed as cell growth at 10^-8 M after 48 hrs by sulforhodamine B assay", "assay_type": "functional", "settings": "HCT-15, 48 h, read-out: Activity", "units": {"growth at 0.01 µM": "%"}, "values": [
      {"smiles": "CNC(=O)c1cc(Oc2ccc3nc(NC(=O)Nc4ccc(Cl)c(C(F)(F)F)c4)sc3c2)ccn1", "growth at 0.01 µM": 97}
    ]},
    {"test_system": "not listed separately", "test": "Antiproliferative activity against human SNB19 cells assessed as cell growth at 10^-8 M after 48 hrs by sulforhodamine B assay", "assay_type": "functional", "settings": "SNB-19, 48 h, read-out: Activity", "units": {"growth at 0.01 µM": "%"}, "values": [
      {"smiles": "CNC(=O)c1cc(Oc2ccc3nc(NC(=O)Nc4ccc(Cl)c(C(F)(F)F)c4)sc3c2)ccn1", "growth at 0.01 µM": 101}
    ]},
    {"test_system": "not listed separately", "test": "Antiproliferative activity against human OVCAR5 cells assessed as cell growth at 10^-6 M after 48 hrs by sulforhodamine B assay", "assay_type": "functional", "settings": "OVCAR-5, 48 h, read-out: Activity", "units": {"growth at 1 µM": "%"}, "values": [
      {"smiles": "CNC(=O)c1cc(Oc2ccc3nc(NC(=O)Nc4ccc(Cl)c(C(F)(F)F)c4)sc3c2)ccn1", "growth at 1 µM": 90}
    ]}
  ]
}
